Data reported in patent US7767194B2, “Optical diagnostic and therapeutic agents and compositions” (Mallinckrodt Inc., priority 2000, dated 2010).

How the values were obtained:
[1] = Monitoring of the blood clearance profile of peptide-dye conjugates; assay type: in vivo; conditions: rat ear, bolus injection in lateral tail vein, 830 nm after excitation at 780 nm
From the text: A laser of appropriate wavelength for excitation of the dye chromophore was directed into one end of a fiber optic bundle and the other end was positioned a few millimeters from the ear of a rat. A second fiber optic bundle was also positioned near the same ear to detect the emitted fluorescent light and the other end was directed into the optics and electronics for data collection. An interference filter (IF) in the collection optics train was used to select emitted fluorescent light of the appropriate wavelength for the dye chromophore.
After the animals had achieved the desired plane of anesthesia, a 21 gauge butterfly with 12″ tubing was placed in the lateral tail vein of each animal and flushed with heparinized saline. The animals were placed onto a heating pad and kept warm throughout the entire study. The lobe of the left ear was affixed to a glass microscope slide to reduce movement and vibration.
Incident laser light delivered from the fiber optic was centered on the affixed ear. Data acquisition was then initiated, and a background reading of fluorescence was obtained prior to administration of the test agent. […] This procedure was repeated with several dye-peptide conjugates in normal and tumor bearing rats. […] The data were analyzed using a standard sigma plot software program for a one compartment model.

[2] = Imaging of individual organs removed from CA20948 tumor-bearing rat; assay type: in vivo
Protocol: Individual organs were removed at about 24 hours post Cytate 1 administration and imaged.

[3] = test system: Rat pancreatic acinar carcinoma expressing the SST-2 receptor (CA20948); assay: Non-invasive in vivo fluorescence imaging of rat pancreatic acinar carcinoma (CA20948)
From the text: (§1) A non-invasive in vivo fluorescence imaging apparatus was employed to assess the efficacy of contrast agents developed for tumor detection in animal models. A LaserMax Inc. laser diode of nominal wavelength 780 nm and nominal power of 40 mW was used. The detector was a Princeton Instruments model RTE/CCD-1317-K/2 CCD camera with a Rodenstock 10 mm F2 lens (stock #542.032.002.20) attached. An 830 nm interference […] (CVI Laser Corp., part # F10-830-4-2) was mounted in front of the CCD input lens such that only emitted fluorescent light from the contrast agent was imaged. Typically, an image of the animal was taken pre-injection of contrast agent. This image was subsequently subtracted (pixel by pixel) from the post injection images. However, the background subtraction was […] done once the animal had been removed from the sample area and returned at a later time for images taken several hours post injection.
DSL 6A tumors were induced in male Lewis rats in the left flank area by the introduction of material from a solid (donor) implant and the tumors were palpable in approximately 14 days. The animals were anesthetized with xylazine; ketamine; acepromazine 1.5:1.5:0.5 at 0.8 mL/kg via intramuscular injection. The area of the tumor (left flank) was shaved to expose tumor and surrounding surface area. A 21 gauge butterfly equipped with a stopcock and two syringes containing heparinized saline was placed into the later tail vein of the rat. Patency of the vein was checked prior to administration of the ICG via the butterfly apparatus. Each animal received […] of a 0.42 mg/mL solution of ICG in water.
The imaging apparatus and the procedure used are described in Example 12. Rat pancreatic acinar carcinoma expressing the SST-2 receptor (CA20948) was induced by solid implant technique in the left flank area, and palpable masses were detected nine days post implant. The images obtained at 2 and 30 minutes post injection are shown in FIG. 7E-F. FIGS. 7E-F are images of a rat with an induced pancreatic acinar carcinoma (CA20948) expressing the SST-2 receptor imaged at two minutes (FIG. 7E) and 30 minutes (FIG. 7F) post injection.
The imaging apparatus and the procedure used are described in Example 12 except that each animal received 500 μl of a 1.0 mg/mL solution of Cytate 1 solution of 25% dimethylsulfoxide in water.
Rat pancreatic acinar carcinoma expressing the SST-2 receptor (CA20948) were induced by solid implant technique in the left flank area, and palpable masses were detected 24 days post implant. Images were obtained at various times post injection.
Cytate 1 was evaluated in the CA20948 Lewis rat model. […] At 27 hours post injection, the animal was again imaged (FIG. 9B).

DSL 6A tumors = assay: Non-invasive in vivo fluorescence imaging of pancreatic ductal adenocarcinoma (DSL 6A); parameters: species or system rat
From the text: as §1
DSL 6A tumors were induced in male Lewis rats in the left flank area by the introduction of material from a solid (donor) implant and the tumors were palpable in approximately 14 days. The animals were anesthetized with xylazine; ketamine; acepromazine 1.5:1.5:0.5 at 0.8 mL/kg via intramuscular injection. The area of the tumor (left flank) was shaved to expose tumor and surrounding surface area. […]

[4] = test system: Prostatic carcinoma tumor (Dunning R3327-H); assay: Non-invasive in vivo fluorescence imaging of prostatic carcinoma (R3327-H); parameters: species or system rat
[5] = organ removed about 24 hours post administration
[6] = tissue removed about 24 hours post administration
[7] = CA20948 tumor, 45 minutes post injection

C[C@@H](O)[C@H](NC(=O)[C@@H]1CSSC[C@H](NC(=O)[C@@H](Cc2ccccc2)NC(=O)CCN2C(=CC=CC=CC=CC3=[N+](CCC(=O)O)c4ccc5ccccc5c4C3(C)C)C(C)(C)c3c2ccc2ccccc32)C(=O)N[C@@H](Cc2ccc(O)cc2)C(=O)N[C@H](Cc2c[nH]c3ccccc23)C(=O)N[C@@H](CCCCN)C(=O)N[C@@H]([C@@H](C)O)C(=O)N1)C(=O)O [Cytate 1, monoOctreotate-Bismethylcarboxymethylindocyanine dye]
fluorescence signal in blood after injection (rise) [1]: rapidly increased to a peak value
fluorescence signal in blood over time (clearance) [1]: decayed as a function of time
uptake in adrenals [2, 5]: high uptake
uptake in heart [2, 5]: significantly lower uptake
uptake in liver [2, 5]: significantly lower uptake
uptake in pancreas [2, 5]: high uptake
uptake in spleen [2, 5]: significantly lower uptake
uptake in muscle [2, 6]: significantly lower uptake
uptake in tumor tissue [2, 6]: high uptake
localization of dye in the tumor ([3]; CA20948 Lewis rat model, 45 minutes post injection): localization of this dye was observed in the tumor
tumor visualization ([3]; CA20948 Lewis rat model, 27 hours post injection): easily observed
time course of uptake into the tumor ([3]; CA20948 tumor, 500 μl of 1.0 mg/mL in 25% dimethylsulfoxide in water): seen at two minutes but was not maximal until about five minutes
uptake (dye fluorescence) in tumor at 45 minutes [3, 7]: still quite intense
persistence of dye fluorescence in the tumor ([3]; CA20948 tumor, post-injection): remained intense in the tumor for several hours

C[C@@H](O)[C@H](NC(=O)[C@@H]1CSSC[C@H](NC(=O)[C@@H](Cc2ccccc2)NC(=O)CCN2C(=CC=CC=CC=CC3=[N+](CCC(=O)N[C@H](Cc4ccccc4)C(=O)N[C@H]4CSSC[C@@H](C(=O)N[C@H](C(=O)O)[C@@H](C)O)NC(=O)[C@H]([C@@H](C)O)NC(=O)[C@H](CCCCN)NC(=O)[C@@H](Cc5c[nH]c6ccccc56)NC(=O)[C@H](Cc5ccc(O)cc5)NC4=O)c4ccc5ccccc5c4C3(C)C)C(C)(C)c3c2ccc2ccccc32)C(=O)N[C@@H](Cc2ccc(O)cc2)C(=O)N[C@H](Cc2c[nH]c3ccccc23)C(=O)N[C@@H](CCCCN)C(=O)N[C@@H]([C@@H](C)O)C(=O)N1)C(=O)O [Cytate 2, bisOctreotate-Bismethylcarboxymethylindocyanine dye]
fluorescence signal in blood after injection (rise) [1]: rapidly increased to a peak value
fluorescence signal in blood over time (clearance) [1]: decayed as a function of time

CC1(C)C(/C=C/C=C/C=C/C=C2\N(CCCCS(=O)(=O)O)c3ccc4ccccc4c3C2(C)C)=[N+](CCCCS(=O)(=O)[O-])c2ccc3ccccc3c21 [ICG, indocyanine green]
perfusion of the agent into the tumor (DSL 6A tumors; DSL 6/A (pancreatic) tumor line, CCD camera): slow perfusion of the agent over time into the tumor
dye intensity in the tumor (DSL 6A tumors; DSL 6A tumor, male Lewis rats, 30 minutes post-ICG injection (vs two minutes), tail vein bolus 0.5 ml aqueous solution): considerably diminished
perfusion of the agent into the tumor ([4]; Dunning R3327H (prostate) tumor line, CCD camera): slow perfusion of the agent over time into the tumor
dye intensity in the tumor ([4]; R3327-H tumor, Copenhagen rats, 30 minutes post-ICG injection (vs two minutes)): considerably diminished
perfusion of the agent into the tumor ([3]; CA20948 (pancreatic) tumor line, CCD camera): only a slight but transient perfusion that was absent after only 30 minutes post injection
dye intensity in the tumor ([3]; CA20948 tumor, 30 minutes post-ICG injection (vs two minutes)): considerably diminished and almost absent
uptake (dye fluorescence) in tumor at 45 minutes [3, 7]: mostly cleared
